Target: PikDH2 (PikKR2-DH2 didomain) (Streptomyces venezuelae, UniProt Q9ZGI5)
Experiment: time-dependent inactivation, Kitz-Wilson plot
Format: biochemical
Settings: read-out: KI; covalent; mechanism-based irreversible inhibitor; substrate 2a; 10 to 40 μM inhibitor

Chain of PikDH2 (PikKR2-DH2 didomain) (Q9ZGI5 3579-4365): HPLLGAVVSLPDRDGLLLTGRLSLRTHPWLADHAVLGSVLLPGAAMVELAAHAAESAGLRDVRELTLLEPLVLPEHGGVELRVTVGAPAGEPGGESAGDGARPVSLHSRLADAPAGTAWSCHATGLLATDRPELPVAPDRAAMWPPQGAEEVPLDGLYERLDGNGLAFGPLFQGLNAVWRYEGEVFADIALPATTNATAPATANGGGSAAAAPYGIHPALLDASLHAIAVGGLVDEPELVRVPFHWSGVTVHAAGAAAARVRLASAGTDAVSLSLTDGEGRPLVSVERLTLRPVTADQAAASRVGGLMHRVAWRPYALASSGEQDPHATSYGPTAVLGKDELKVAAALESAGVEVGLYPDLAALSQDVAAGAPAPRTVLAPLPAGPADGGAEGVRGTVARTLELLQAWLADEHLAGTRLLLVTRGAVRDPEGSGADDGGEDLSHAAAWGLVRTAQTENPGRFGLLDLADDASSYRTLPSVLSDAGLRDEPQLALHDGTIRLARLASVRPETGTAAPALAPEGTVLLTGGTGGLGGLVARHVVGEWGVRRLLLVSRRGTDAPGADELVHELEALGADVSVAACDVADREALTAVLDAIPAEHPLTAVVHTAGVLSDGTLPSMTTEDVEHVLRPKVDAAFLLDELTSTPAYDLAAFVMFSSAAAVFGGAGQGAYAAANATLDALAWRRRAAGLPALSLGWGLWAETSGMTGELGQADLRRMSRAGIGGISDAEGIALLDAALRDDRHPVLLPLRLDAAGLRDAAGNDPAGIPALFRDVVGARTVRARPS

KI (inactivation): 156 ± 34 µM
Compound: CCCCCCC#CCC(=O)SCCNC(C)=O [compound 6, 3-Decynoyl-N-acetylcysteamine]
